Reference: patent EP4159213A1, “PHARMACEUTICAL COMPOSITIONS FOR USE IN PREVENTION AND/OR TREATMENT AND/OR CURE OF HEPATITIS B VIRUS” (Katholieke Universiteit Leuven, priority 2021, dated 2023)
Structures can show the parent of a compound that is named as a salt. Where two headings read alike, the source gives them in different places. Residues, ends and D or L forms follow the SMILES beside them.

Target: T1, human NTCP (Homo sapiens, UniProt Q14973)
T1 sequence (Q14973 1-349): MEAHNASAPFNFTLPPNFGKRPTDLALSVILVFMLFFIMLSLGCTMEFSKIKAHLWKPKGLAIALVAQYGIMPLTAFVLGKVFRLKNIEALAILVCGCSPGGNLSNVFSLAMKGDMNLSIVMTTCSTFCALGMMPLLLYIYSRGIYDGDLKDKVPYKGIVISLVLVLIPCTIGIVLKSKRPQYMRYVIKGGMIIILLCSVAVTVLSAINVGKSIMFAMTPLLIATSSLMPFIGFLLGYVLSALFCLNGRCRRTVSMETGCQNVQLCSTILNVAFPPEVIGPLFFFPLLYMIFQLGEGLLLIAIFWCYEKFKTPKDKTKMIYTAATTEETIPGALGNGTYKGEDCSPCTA
Experiment: Inhibition of tauro-nor-THCA-24-DBD uptake in NTCP-transfected CHO cells
Type: cell-based
Design: expressed in transfected cells; host or cells: CHO cells, geneticin selection, expression induced with sodium butyrate
Conditions: for concentration-dependent inhibition of tauro-nor-THCA-24-DBD uptake: multiple inhibitor concentrations
Protocol: The cells were placed in an incubator at 37 °C and 5% CO2. The culture medium consisted of DMEM with 1 g·L^-1 glucose and 25 mM HEPES, supplemented with 10% FBS, 0.05 mg·mL^-1 L-proline, 100 IU·mL^-1 penicillin, 100 […], 2 mM glutamine, 0.11 mg·mL^-1 sodium pyruvate. To ensure selection of NTCP-transfected cells, 0.5 mg·mL^-1 geneticin was added to the medium of the transfected cells. Cells were seeded in black 96-well plates with transparent bottom at a density of 6000 cells·well^-1 and 4000 cells·well^-1 for wild-type and transfected cells, respectively. The medium was replaced every other day and 5 mM sodium butyrate was added to induce protein expression at least 36 h before the start of the experiments. Experiments were performed on day 4 or 5 after seeding when confluence was reached.
Furthermore, to analyse the uptake experiments in NTCP-transfected CHO cells, cells were rinsed twice with 200 µL-well^-1 uptake buffer (HBSS containing 10 mM HEPES, pH 7.4) at 37 °C and subsequently preincubated with 100 µL uptake buffer for 15 minutes. For inhibition experiments, compounds were added at double concentration during preincubation. Uptake was initiated by adding 100 µL double-concentrated tauro-nor-THCA-24-DBD solution in uptake buffer. Cells were incubated for 15 minutes. The reaction was quenched by aspirating the incubation mixture and washing four times with ice cold uptake buffer. The cells were lysed with 100 µL 0.5% Triton X-100 in PBS and placed on a plate shaker (300 rpm) at room temperature for 30 minutes. Uptake of tauro-nor-THCA-24-DBD was determined using fluorescence spectroscopy (excitation 440 nm, emission 580 nm) using a Tecan Infinite 200 plate reader (Tecan Benelux, Mechelen, Belgium). Protein content of each well was determined with the BCA Protein assay (Thermo Fisher Scientific, Waltham, MA) performed according to the manufacturer's protocol. Uptake kinetics of tauro-nor-THCA-24-DBD were determined by incubating eight different concentrations in the absence of any compound. […] All conditions were tested in triplicate.
Uptake of tauro-nor-THCA-24-DBD in presence of compounds was expressed to uptake of the control for each batch, i.e. when no compound was present.
For determination of the IC50, the uptake in presence of various concentrations of inhibitor was fitted to the sigmoid Emax model: E = Emax −(Emax−E0) × (([I])^n)/(([I])^n + IC50^n) [formula] with E the uptake of tauro-nor-THCA-24-DBD, E0 the uptake at maximal inhibition by the compound, Emax the uptake at minimal inhibition, IC50 the concentration of the inhibitor at half maximal inhibition, n the Hill coefficient and [I] the concentration of the inhibitor. All curves were fitted with nonlinear least squares regression using R version 3.5.1.
Assuming competitive inhibition, the Cheng-Prusoff equation was used to determine the Ki value: Ki = (IC50)/(1 + ([S])/(Km)) [formula] where Ki is the binding affinity of the inhibitor, IC50 the concentration of the inhibitor at half maximal inhibition, [S] the substrate concentration, and Km the Michaelis-Menten constant of the substrate.

[1] = 3 µM tauro-nor-THCA-24-DBD, Cheng-Prusoff from IC50, screening hits, read-out: Ki
[2] = compound at equimolar concentration with 3 µM tauro-nor-THCA-24-DBD, triplicate
[3] = 3 µM tauro-nor-THCA-24-DBD, values given with ± spread, read-out: Ki
[4] = 3 µM tauro-nor-THCA-24-DBD, 15 minutes, Cheng-Prusoff from IC50, known NTCP inhibitors, read-out: Ki ± SE

Compound: COC(=O)C1=C(C)NC(C)=C(C(=O)OCCN(C)Cc2ccccc2)C1c1cccc([N+](=O)[O-])c1 (centres unmarked) [Nicardipine hydrochloride]
- Ki [1]: 3.53 µM
- Uptake of tauro-nor-THCA-24-DBD (% of control) [2]: 42.69 % of control

Compound: CC(=O)O.Cc1cc2c(C(C)C)c(O)c(O)c(C=O)c2c(O)c1-c1c(C)cc2c(C(C)C)c(O)c(O)c(C=O)c2c1O [Gossypol-acetic acid complex]
- Ki [1]: 3.1 µM
- Uptake of tauro-nor-THCA-24-DBD (% of control) [2]: 36.14 % of control

Compound: COP(=S)(OC)Oc1ccc(Sc2ccc(OP(=S)(OC)OC)cc2)cc1 [Temefos]
- Ki [1]: 4.16 µM
- Uptake of tauro-nor-THCA-24-DBD (% of control) [2]: 38.51 % of control

Compound: Cc1cc2c(C(C)C)c(O)c(O)c(C=O)c2c(O)c1-c1c(C)cc2c(C(C)C)c(O)c(O)c(C=O)c2c1O [Gossypol]
- Ki [1]: 0.4 µM
- Uptake of tauro-nor-THCA-24-DBD (% of control) [2]: 12.48 % of control

Compound: O=C(OC[C@H]1O[C@@H](OC(=O)c2cc(O)c(O)c(OC(=O)c3cc(O)c(O)c(O)c3)c2)[C@H](OC(=O)c2cc(O)c(O)c(OC(=O)c3cc(O)c(O)c(O)c3)c2)[C@@H](OC(=O)c2cc(O)c(O)c(OC(=O)c3cc(O)c(O)c(O)c3)c2)[C@@H]1OC(=O)c1cc(O)c(O)c(OC(=O)c2cc(O)c(O)c(O)c2)c1)c1cc(O)c(O)c(OC(=O)c2cc(O)c(O)c(O)c2)c1 [Tannic acid]
- Ki [1]: 0.35 µM
- Uptake of tauro-nor-THCA-24-DBD (% of control) [2]: 8.31 % of control

Compound: COc1cc(-c2coc3cc(OCc4ccccc4)c(OC)c(O)c3c2=O)cc(O)c1OC [Irigenin, 7-benzyl ether]
- Ki [1]: 13 µM
- Uptake of tauro-nor-THCA-24-DBD (% of control) [2]: 46.71 % of control

Compound: Dehydroavocatin-1 -acetate
- Ki [1]: 118 µM
- Uptake of tauro-nor-THCA-24-DBD (% of control) [2]: 44.14 % of control

Compound: O=c1c(O)c(-c2ccc(O)c(O)c2)oc2cc(O)cc(O)c12 [quercetin]
- concentration-dependent inhibition of tauro-nor-THCA-24-DBD uptake (3 µM tauro-nor-THCA-24-DBD): did not show concentration-dependent inhibition

Compound: COc1c(CC=C(C)C)c2c(c3oc(=O)c(-c4ccc(O)cc4)c(O)c13)C=CC(C)(C)O2 [Scandenin]
- Uptake of tauro-nor-THCA-24-DBD (% of control) [2]: 38.92 % of control

Compound: CC/C(=C(/CC)c1ccc(O)cc1)c1ccc(O)cc1 [Diethylstilbestrol]
- Ki [1]: 1.57 µM
- Uptake of tauro-nor-THCA-24-DBD (% of control) [2]: 48.51 % of control

Compound: CC(=O)O[C@H]1C[C@H](O[C@H]2[C@@H](O)C[C@H](O[C@H]3[C@@H](O)C[C@H](O[C@H]4CC[C@@]5(C)[C@H](CC[C@@H]6[C@@H]5C[C@@H](O)[C@]5(C)[C@@H](C7=CC(=O)OC7)CC[C@]65O)C4)O[C@@H]3C)O[C@@H]2C)O[C@H](C)[C@H]1O[C@@H]1O[C@H](CO)[C@@H](O)[C@H](O)[C@H]1O [Lanatoside c]
- Ki: 125 µM
- Uptake of tauro-nor-THCA-24-DBD (% of control): 45.13 % of control

Compound: COC(=O)CC[C@@H](C)[C@H]1CC[C@H]2[C@@H]3CC[C@@H]4C[C@H](O)CC[C@]4(C)[C@H]3C[C@H](O)[C@]12C [Methyl deoxycholate]
- Ki [1]: 4.84 µM
- Uptake of tauro-nor-THCA-24-DBD (% of control) [2]: 36.71 % of control

Compound: O=C1c2c(O)cc(O)cc2OC(c2ccc(O)cc2)C1c1c(O)cc(O)c2c(=O)cc(-c3ccc(O)c(O)c3)oc12 (centres unmarked) [fukugetin]
- concentration-dependent inhibition of tauro-nor-THCA-24-DBD uptake (3 µM tauro-nor-THCA-24-DBD): showed concentration-dependent inhibition

Compound: CCOc1nc2cccc(C(=O)O)c2n1Cc1ccc(-c2ccccc2-c2nnn[nH]2)cc1 [candesartan]
- Ki [3]: 50.9 ± 9.9 µM

Compound: CC(C)(O)CC[C@@H](O)[C@](C)(O)[C@H]1CC[C@@]2(O)C3=CC(=O)[C@@H]4C[C@@H](O)[C@@H](O)C[C@]4(C)[C@H]3CC[C@]12C [Crustecdysone]
- Uptake of tauro-nor-THCA-24-DBD (% of control) [2]: 46.18 % of control

Compound: COc1cc(OC)c2ccc(=O)oc2c1 [Citropten]
- Uptake of tauro-nor-THCA-24-DBD (% of control) [2]: 46.97 % of control

Compound: Oc1c(Cl)cc(Cl)c(Cl)c1Cc1c(O)c(Cl)cc(Cl)c1Cl [Hexachlorophene]
- Ki: 0.26 µM
- Uptake of tauro-nor-THCA-24-DBD (% of control) [2]: 23.92 % of control

Compound: O=C(O)c1cc(O)c2c(c1)[C@@H]([C@H]1c3cc(C(=O)O)cc(O)c3C(=O)c3c(O[C@@H]4O[C@H](CO)[C@@H](O)[C@H](O)[C@H]4O)cccc31)c1cccc(O[C@@H]3O[C@H](CO)[C@@H](O)[C@H](O)[C@H]3O)c1C2=O [sennoside B]
- concentration-dependent inhibition of tauro-nor-THCA-24-DBD uptake (3 µM tauro-nor-THCA-24-DBD): did not show concentration-dependent inhibition

Compound: COC(=O)[C@H]1[C@H]2C[C@H]3c4[nH]c5ccccc5c4CCN3C[C@H]2CC[C@@H]1O [Rauwolscine hydrochloride]
- Ki [1]: 39.3 µM

Compound: COC(=O)CC[C@@H](C)[C@H]1CC[C@H]2[C@@H]3[C@H](O)C[C@@H]4C[C@H](O)CC[C@]4(C)[C@H]3C[C@H](O)[C@]12C [Cholic acid, methyl ester]
- Ki: 2.32 µM
- Uptake of tauro-nor-THCA-24-DBD (% of control): 37.90 % of control

Compound: N[C@@H](Cc1ccccc1)C(=O)N[C@@H](Cc1ccc(O)cc1)C(=O)O [Phenylalanyltyrosine] (H-Phe-Tyr-OH)
- Uptake of tauro-nor-THCA-24-DBD (% of control) [2]: 47.22 % of control

Compound: COc1cc2c3cc1Oc1cc(ccc1O)C[C@@H]1c4c(cc(OC)c(O)c4Oc4ccc(cc4)C[C@@H]3N(C)CC2)CC[N+]1(C)C.Cl.O.O.O.O.O.[Cl-] [Tubocurarine chloride]
- Uptake of tauro-nor-THCA-24-DBD (% of control) [2]: 49.76 % of control

Compound: COc1ccc(-c2oc3c(CC=C(C)C)c(O)cc(O)c3c(=O)c2O[C@@H]2O[C@@H](C)[C@H](O)[C@@H](O)[C@H]2O)cc1 [Baohuoside I]
- concentration-dependent inhibition of tauro-nor-THCA-24-DBD uptake (3 µM tauro-nor-THCA-24-DBD): showed concentration-dependent inhibition
- Ki [3]: 12.6 ± 4.1 µM

Compound: CC[C@H]1OC(=O)[C@H](C)[C@@H](O[C@H]2C[C@@](C)(OC)[C@@H](O)[C@H](C)O2)[C@H](C)[C@@H](O[C@@H]2O[C@H](C)C[C@H](N(C)C)[C@H]2O)[C@](C)(O)C[C@@H](C)C(=O)[C@H](C)[C@@H](O)[C@]1(C)O [erythromycin]
- concentration-dependent inhibition of tauro-nor-THCA-24-DBD uptake (3 µM tauro-nor-THCA-24-DBD): Only candesartan showed inhibition

Compound: O=C1OC(c2ccc(O)c(S(=O)(=O)O)c2)(c2ccc(O)c(S(=O)(=O)O)c2)c2c(Br)c(Br)c(Br)c(Br)c21 [Bromosulfophthalein]
- Ki [4]: 10.7 ± 3.1 µM
- concentration-dependent inhibition of tauro-nor-THCA-24-DBD uptake (3 µM tauro-nor-THCA-24-DBD): concentration-dependent manner

Compound: Oc1c(Cl)c(Cl)c(Cl)c(Cl)c1Cl [Pentachlorophenol]
- Ki [1]: 2.27 µM
- Uptake of tauro-nor-THCA-24-DBD (% of control) [2]: 46.29 % of control

Compound: Cn1nnnc1SCC1=C(C(=O)O)N2C(=O)[C@@H](NC(=O)[C@H](O)c3ccccc3)[C@H]2SC1 [Cefamandole sodium]
- Ki [1]: 2.07 µM
- Uptake of tauro-nor-THCA-24-DBD (% of control) [2]: 23.97 % of control

Compound: COc1ccccc1Oc1c(NS(=O)(=O)c2ccc(C(C)(C)C)cc2)nc(-c2ncccn2)nc1OCCO [Bosentan]
- Ki [4]: 6.3 ± 1.4 µM
- concentration-dependent inhibition of tauro-nor-THCA-24-DBD uptake (3 µM tauro-nor-THCA-24-DBD): concentration-dependent manner

Compound: Oligomycin (A shown)
- Ki [1]: 0.26 µM
- Uptake of tauro-nor-THCA-24-DBD (% of control) [2]: 33.87 % of control
